According to patent US20200216416A1, “QUINOLINE COMPOUNDS AS INHIBITORS OF TAM AND MET KINASES” (Array BioPharma Inc., priority 2019, published 2020):

What was measured:
human MET kinase Y1230S = biological target: T1, human MET kinase Y1230S (Homo sapiens, UniProt P08581, Y1230S); test: c-Met Enzyme Assay, Y1230S mutant; assay type: binding; settings: averaged IC50; Y1230S 8 nM; 60-minute incubation at 22° C.; read-out: Y1230 S IC50
T1 construct: GST-tagged recombinant human MET kinase domain; purchased Signal Chem
T1 sequence (P08581 1078-1345 Y1230S): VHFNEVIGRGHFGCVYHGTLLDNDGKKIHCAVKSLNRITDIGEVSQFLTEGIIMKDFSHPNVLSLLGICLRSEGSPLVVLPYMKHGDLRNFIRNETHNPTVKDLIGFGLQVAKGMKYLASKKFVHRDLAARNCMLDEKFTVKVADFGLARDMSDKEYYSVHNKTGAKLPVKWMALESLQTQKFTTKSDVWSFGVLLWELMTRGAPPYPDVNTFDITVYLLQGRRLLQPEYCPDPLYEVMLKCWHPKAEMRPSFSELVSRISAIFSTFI
Procedure, shortened: (§1)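 GST-tagged recombinant MET kinase domain was incubated with 50 nM Alexa-Fluor tracer 236, 2 nM Eu-anti-GST and compound in 25 mM HEPES pH 7.4, 10 mM MgCl2, 0.01% Triton X-100, 1 mM DTT, 2% DMSO for 60 min at 22 °C. TR-FRET ratio gave percent of control, fitted 4-parameter; IC50 at 50 POC.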

human MET kinase Y1230C = biological target: T2, human MET kinase Y1230C (Homo sapiens, UniProt P08581, Y1230C); test: c-Met Enzyme Assay, Y1230C mutant; assay type: binding; settings: averaged IC50; Y1230C 2 nM; 60-minute incubation at 22° C.; read-out: Y1230 C IC50
T2 construct: GST-tagged recombinant human MET kinase domain; purchased Signal Chem
T2 sequence (P08581 1078-1345 Y1230C): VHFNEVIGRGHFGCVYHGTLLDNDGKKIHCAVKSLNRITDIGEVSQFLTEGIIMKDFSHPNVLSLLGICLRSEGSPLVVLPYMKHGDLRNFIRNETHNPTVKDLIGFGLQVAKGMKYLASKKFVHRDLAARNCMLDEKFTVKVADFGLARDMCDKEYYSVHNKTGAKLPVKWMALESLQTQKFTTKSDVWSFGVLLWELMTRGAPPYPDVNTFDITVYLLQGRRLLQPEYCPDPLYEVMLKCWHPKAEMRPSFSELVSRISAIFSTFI
Procedure, shortened: as §1

[1] = biological target: T3, human MET kinase del Ex14 (Homo sapiens, UniProt P08581, DEL963-1009); test: c-Met Enzyme Assay, del Ex14 mutant; assay type: binding; settings: averaged IC50; del Ex14 5 nM; 60-minute incubation at 22° C.; read-out: Del14 IC50
T3 construct: GST-tagged recombinant human MET kinase domain; purchased Signal Chem
T3 sequence (P08581 with tags, fused parts or gaps DEL963-1009 limits assumed): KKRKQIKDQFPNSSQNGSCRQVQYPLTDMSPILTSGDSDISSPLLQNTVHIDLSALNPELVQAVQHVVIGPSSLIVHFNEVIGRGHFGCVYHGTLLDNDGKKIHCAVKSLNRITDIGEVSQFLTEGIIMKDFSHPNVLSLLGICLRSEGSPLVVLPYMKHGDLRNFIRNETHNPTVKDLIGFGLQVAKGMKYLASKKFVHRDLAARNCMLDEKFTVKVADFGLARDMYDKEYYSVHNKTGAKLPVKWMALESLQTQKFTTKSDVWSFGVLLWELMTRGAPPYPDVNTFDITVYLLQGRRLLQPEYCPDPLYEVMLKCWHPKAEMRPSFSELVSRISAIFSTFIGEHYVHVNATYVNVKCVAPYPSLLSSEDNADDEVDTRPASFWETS
Procedure, shortened: as §1

human MET kinase F1200I = biological target: T4, human MET kinase F1200I (Homo sapiens, UniProt P08581, F1200I); test: c-Met Enzyme Assay, F1200I mutant; assay type: binding; settings: averaged IC50; F1200I 2 nM; 60-minute incubation at 22° C.
T4 construct: GST-tagged recombinant human MET kinase domain; purchased Signal Chem
T4 sequence (P08581 1078-1345 F1200I limits assumed): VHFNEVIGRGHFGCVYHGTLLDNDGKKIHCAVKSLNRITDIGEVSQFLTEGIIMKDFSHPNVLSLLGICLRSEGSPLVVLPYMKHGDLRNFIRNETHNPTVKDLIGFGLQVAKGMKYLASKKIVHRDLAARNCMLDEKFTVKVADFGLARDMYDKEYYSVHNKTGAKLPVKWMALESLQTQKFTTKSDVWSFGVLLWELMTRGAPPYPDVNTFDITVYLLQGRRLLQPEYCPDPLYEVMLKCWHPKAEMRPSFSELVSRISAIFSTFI
Procedure, shortened: as §1

human MET kinase D1228H = biological target: T5, human MET kinase D1228H (Homo sapiens, UniProt P08581, D1228H); test: c-Met Enzyme Assay, D1228H mutant; assay type: binding; settings: averaged IC50; D1228H 2 nM; 60-minute incubation at 22° C.; read-out: D1228 H IC50
T5 construct: GST-tagged recombinant human MET kinase domain; purchased Signal Chem
T5 sequence (P08581 1078-1345 D1228H): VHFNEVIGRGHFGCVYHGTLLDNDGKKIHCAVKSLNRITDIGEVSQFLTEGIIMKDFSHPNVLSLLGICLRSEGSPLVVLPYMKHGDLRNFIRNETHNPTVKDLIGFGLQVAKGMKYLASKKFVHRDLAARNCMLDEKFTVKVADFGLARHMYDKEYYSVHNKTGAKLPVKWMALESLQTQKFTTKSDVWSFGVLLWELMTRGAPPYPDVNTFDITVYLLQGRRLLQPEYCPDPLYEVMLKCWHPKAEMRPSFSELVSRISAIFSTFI
Procedure, shortened: as §1

[2] = biological target: T6, MET (wt) GST-tagged recombinant human MET kinase domain (Homo sapiens, UniProt P08581); test: c-Met Enzyme Assay, wild type (LanthaScreen Eu Kinase Binding); settings: averaged IC50; MET (wt) 10 nM; 60-minute incubation at 22° C.; read-out: SigChem WT IC50
T6 construct: GST-tagged recombinant human MET kinase domain; purchased Signal Chem
T6 sequence (P08581 1078-1345 limits assumed): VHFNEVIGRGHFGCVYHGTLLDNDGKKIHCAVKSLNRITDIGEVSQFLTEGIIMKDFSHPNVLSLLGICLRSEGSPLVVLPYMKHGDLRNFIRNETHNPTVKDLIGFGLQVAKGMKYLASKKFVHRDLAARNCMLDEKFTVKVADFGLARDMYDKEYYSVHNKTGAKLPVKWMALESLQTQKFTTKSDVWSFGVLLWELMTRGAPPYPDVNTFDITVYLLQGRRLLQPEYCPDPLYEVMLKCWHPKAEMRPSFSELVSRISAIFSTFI
Procedure, shortened: as §1

[3] = biological target: T7, GST-tagged recombinant human TYRO3 kinase domain (Homo sapiens, UniProt Q06418); test: TYRO3 Enzyme Assay (LanthaScreen Eu Kinase Binding); settings: averaged IC50; TYRO3 5 nM; 60-minute incubation at 22° C.; TR-FRET
T7 construct: GST-tagged recombinant human TYRO3 kinase domain; purchased Carna PR7480A
T7 sequence (Q06418 518-790 limits assumed): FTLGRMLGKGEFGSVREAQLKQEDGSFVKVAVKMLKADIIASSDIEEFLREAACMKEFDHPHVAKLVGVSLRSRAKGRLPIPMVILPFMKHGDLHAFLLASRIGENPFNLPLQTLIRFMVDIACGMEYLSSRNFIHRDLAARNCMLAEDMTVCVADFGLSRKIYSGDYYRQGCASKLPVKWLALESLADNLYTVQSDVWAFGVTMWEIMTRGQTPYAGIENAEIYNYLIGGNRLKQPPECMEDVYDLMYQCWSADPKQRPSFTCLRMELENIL
Procedure, shortened: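 Competitive tracer-displacement TR-FRET: 5 nM kinase, 20 nM Alexa-Fluor Tracer 236 and 2 nM Eu-anti-GST with threefold-diluted compound in 25 mM HEPES pH 7.4, 10 mM MgCl2, 0.01% Triton X-100, 2% DMSO, 60 min at 22° C. Ratiometric percent of control fitted to a 4-parameter logistic; IC50 at 50 POC.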

| Compound | IC50 (human MET kinase Y1230S) | IC50 (human MET kinase Y1230C) | IC50 [1] | IC50 (human MET kinase F1200I) | IC50 (human MET kinase D1228H) | IC50 [2] | IC50 [3] |
| --- | --- | --- | --- | --- | --- | --- | --- |
| COc1cc2c(Oc3ccc(NC(=O)c4cn(C(C)C)cc(-c5ccc(F)cc5)c4=O)nc3)ccnc2cc1F [Example 49, N-(5-((7-fluoro-6-methoxyquinolin-4yl)oxy)pyridin-2-yl)-5-(4-fluorophenyl)-1-isopropyl-4-oxo-1,4-dihydropyridine-3-carboxamide] | 67.1 nM | 39 nM | 22 nM | 27.8 nM | 64.3 nM | 27 nM | 58 nM |
| CC(C)n1cc(C(=O)Nc2ccc(Oc3ccnc4cc(OC(F)(F)F)ccc34)cn2)c(=O)c(-c2ccc(F)cc2)c1 [Example 50, 5-(4-fluorophenyl)-1-isopropyl-4-oxo-N-(5-((7-(trifluoromethoxy)quinolin-4-yl)oxy)pyridin-2-yl)-1,4-dihydropyridine-3-carboxamide] | 166 nM | 199 nM | 90.4 nM | 104 nM | 223 nM | 59.2 nM | 470 nM |
| CCOc1ccc2nccc(Oc3ccc(NC(=O)c4cn(C(C)C)cc(-c5ccc(F)cc5)c4=O)nc3)c2c1 [Example 51, N-(5-((6-ethoxyquinolin-4-yl)oxy)pyridin-2-yl)-5-(4-fluorophenyl)-1-isopropyl-4-oxo-1,4-dihydropyridine-3-carboxamide] | 44 nM | 61.8 nM | 29.4 nM | 35 nM | 59.5 nM | 22.2 nM | 112 nM |
| CCOc1ccc2c(Oc3ccc(NC(=O)c4cn(C(C)C)cc(-c5ccc(F)cc5)c4=O)nc3)ccnc2c1 [Example 52, N-(5-((7-ethoxyquinolin-4-yl)oxy)pyridin-2-yl)-5-(4-fluorophenyl)-1-isopropyl-4-oxo-1,4-dihydropyridine-3-carboxamide] | 14.3 nM | 13.1 nM | 10.3 nM | 20.1 nM | 14.5 nM | 14.7 nM | 18 nM |
| COc1cc2nccc(Oc3cnc(NC(=O)c4cn(C(C)C)cc(-c5ccc(F)cc5)c4=O)nc3)c2cc1OC [Example 54, N-(5-((6,7-dimethoxyquinolin-4-yl)oxy)pyrimidin-2-yl)-5-(4-fluorophenyl)-1-isopropyl-4-oxo-1,4-dihydropyridine-3-carboxamide] | 3.2 nM | 4.3 nM | 3.8 nM | 6.7 nM | 3.8 nM | 4.7 nM | 21 nM |
| COc1cc2nccc(Oc3cnc(NC(=O)c4cn(C(C)C)c(C)c(-c5ccc(F)cc5)c4=O)nc3)c2cc1OC [Example 55, N-(5-((6,7-dimethoxyquinolin-4-yl)oxy)pyrimidin-2-yl)-5-(4-fluorophenyl)-1-isopropyl-6-methyl-4-oxo-1,4-dihydropyridine-3-carboxamide] | 2.6 nM | 2.2 nM | 3.1 nM | 3.4 nM | 2.2 nM | 2.8 nM | 8 nM |
| COc1cc2c(Oc3ccc(NC(=O)c4cn(C(C)C)cc(-c5ccc(F)cc5)c4=O)nc3)ccnc2cc1OCCCN1CCOCC1 [Example 56, 5-(4-fluorophenyl)-1-isopropyl-N-(5-((6-methoxy-7-(3-morpholinopropoxy)quinolin-4-yl)oxy)pyridin-2-yl)-4-oxo-1,4-dihydropyridine-3-carboxamide] | 3 nM | 3.2 nM | 4.5 nM | 5 nM | 1.9 nM | 3.9 nM | 10 nM |
| COc1cc2ncc(C#N)c(Oc3ccc(NC(=O)c4cn(C(C)C)cc(-c5ccc(F)cc5)c4=O)nc3)c2cc1OC [Example 57, N-(5-((3-cyano-6,7-dimethoxyquinolin-4-yl)oxy)pyridin-2-yl)-5-(4-fluorophenyl)-1-isopropyl-4-oxo-1,4-dihydropyridine-3-carboxamide] | 514 nM | 526 nM | 305 nM | 346 nM | 532 nM | 297 nM | 255 nM |
| COc1cc2nccc(Oc3ccc(NC(=O)c4cn(C(C)C)cc(-c5ccc(F)cc5)c4=O)cn3)c2cc1OC [Example 58, N-(6-((6,7-dimethoxyquinolin-4-yl)oxy)pyridin-3-yl)-5-(4-fluorophenyl)-1-isopropyl-4-oxo-1,4-dihydropyridine-3-carboxamide] | 2.7 nM | 2.2 nM | 3.1 nM | 3.5 nM | 3.5 nM | 2.7 nM | 6 nM |
